Test results reported in paper PMC9312158, “Novel 1,2,3-Triazole-sulphadiazine-ZnO Hybrids as Potent Antimicrobial Agents against Carbapenem Resistant Bacteria” (Antibiotics, 2022).
Like-named read-outs stand apart in the source and are kept apart here.

How the values were obtained:
NDM-1 = NDM-1 (Klebsiella pneumoniae, UniProt C7C422); assay: In vitro MBLs inhibition assay with CENTA substrate, NDM-1; format: biochemical; details: for inhibition at 5 µM: 5 µM compound, CENTA 70 µM
Procedure: (§1) Assays of enzyme inhibition were measured in the absence and presence of 5 µM of compound 4a–c and their ZnO conjugated hybrids to determine their inhibitory activity (IMP1 and NDM-1). CENTA (70 µM), a chromogenic cephalosporin substrate, was employed. The chromophore […] is formed when MBLs hydrolyze CENTA, and its generation may be detected spectrophotometrically using a plate reader at = 405 nm (at pH 7.0, ε = 6400 M^−1 cm^−1). Assays of kinetics of the inhibition experiments were carried out in accordance with earlier research. Non-linear regression was used to examine the inhibition data.

IMP-1 = IMP-1 (Serratia marcescens, UniProt P52699); assay: In vitro MBLs inhibition assay with CENTA substrate, IMP-1; format: biochemical; details: for inhibition at 5 µM: 5 µM compound, CENTA 70 µM, read-out: % Inhibition IPM-1 (5 µM)
Sequence of IMP-1 (P52699 19-246, looked up, species assumed): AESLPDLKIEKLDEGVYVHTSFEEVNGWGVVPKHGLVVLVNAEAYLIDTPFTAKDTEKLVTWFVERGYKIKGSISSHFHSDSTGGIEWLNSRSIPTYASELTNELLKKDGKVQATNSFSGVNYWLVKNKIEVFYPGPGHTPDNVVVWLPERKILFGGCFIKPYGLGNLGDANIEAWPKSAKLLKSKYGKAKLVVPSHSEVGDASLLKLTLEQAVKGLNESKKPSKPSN
Procedure: as §1

[1] = inhibition constant for the competitive inhibition mode, read-out: NDM-1 Kic
[2] = inhibition constant for the uncompetitive inhibition mode, read-out: NDM-1 Kiuc
[3] = inhibition constant for the competitive inhibition mode, read-out: IPM-1 Kic
[4] = inhibition constant for the uncompetitive inhibition mode, read-out: IPM-1 Kiuc

Sequence of NDM-1 (C7C422 29-270, looked up, species assumed): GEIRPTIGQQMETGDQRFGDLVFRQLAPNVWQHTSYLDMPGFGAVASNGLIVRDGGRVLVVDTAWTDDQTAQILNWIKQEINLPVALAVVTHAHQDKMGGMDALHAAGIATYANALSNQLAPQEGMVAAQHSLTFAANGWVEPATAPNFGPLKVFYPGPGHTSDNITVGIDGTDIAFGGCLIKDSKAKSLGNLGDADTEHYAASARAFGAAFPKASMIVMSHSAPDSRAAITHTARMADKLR

inhibition at 5 µM (NDM-1) [%] | Ki (NDM-1; [1]) [µM] | Ki (NDM-1; [2]) [µM] | inhibition at 5 µM (IMP-1) [%] | Ki (IMP-1; [3]) [µM] | Ki (IMP-1; [4]) [µM] | Structure (SMILES)
71.2 | 9.6 | 6 | 75 | 11.8 | 7.7 | O=S(=O)(Nc1ncccn1)c1ccc(-n2cc(CO)nn2)cc1 [Compound 3a]
68.7 | 9 | 6 | 75.4 | 11.4 | 7.6 | O=S(=O)(Nc1ccccn1)c1ccc(-n2cc(CO)nn2)cc1 [Compound 3b]
64.3 | 8.5 | 3.9 | 72.9 | 10.9 | 5.1 | NC(N)=NS(=O)(=O)c1ccc(-n2cc(CO)nn2)cc1 [Compound 3c]
